ChEMBL document CHEMBL2074307, “Characterization of drug transport by the human multidrug resistance protein 3 (ABCC3)” (J Biol Chem, 2001)

Key:
[1] = biological target: Multidrug resistance associated protein (Homo sapiens) (UniProt Q96QA9); assay: (§1) TP_TRANSPORTER: uptake in membrane vesicle from MRP3-expressing Sf9 cells; assay type: functional, cell membranes
[2] = biological target: Multidrug resistance associated protein (Homo sapiens) (UniProt Q96QA9); assay: TP_TRANSPORTER: efflux in MRP3-expressing fibroblast from kidney of mdr1a/1b and mrp1 (-/-) mouse; assay type: functional, cell-based; conditions: mdr1a/1b (-/-) and mrp1 (-/-) fibroblasts
[3] = biological target: Multidrug resistance associated protein (Homo sapiens) (UniProt Q96QA9); assay: TP_TRANSPORTER: increase in Etoposide intracellular accumulation (Etoposide: 2 uM, Sulfinpyrazone: 2000 uM) in MRP3-expressing fibroblast from kidney of mdr1a/1b and mrp1 (-/-) mouse; assay type: functional, cell-based; conditions: mdr1a/1b (-/-) and mrp1 (-/-) fibroblasts
[4] = biological target: Multidrug resistance associated protein (Homo sapiens) (UniProt Q96QA9); assay: TP_TRANSPORTER: increase in Etoposide intracellular accumulation (Etoposide: 2 uM, Indomethacin: 500 uM) in MRP3-expressing fibroblast from kidney of mdr1a/1b and mrp1 (-/-) mouse; assay type: functional, cell-based; conditions: mdr1a/1b (-/-) and mrp1 (-/-) fibroblasts
[5] = substrate: C[C@]12CC[C@@H]3c4ccc(O)cc4CC[C@H]3[C@@H]1CC[C@@H]2O[C@@H]1O[C@H](C(=O)O)[C@@H](O)[C@H](O)[C@H]1O; assay: as §1; assay type: functional, cell membranes
[6] = substrate: COc1cc([C@@H]2c3cc4c(cc3[C@@H](O[C@@H]3O[C@@H]5CO[C@@H](C)O[C@H]5[C@H](O)[C@H]3O)[C@H]3COC(=O)[C@H]23)OCO4)cc(OC)c1O[C@@H]1O[C@H](C(=O)O)[C@@H](O)[C@H](O)[C@H]1O; assay: as §1; assay type: functional, cell membranes

For `N[C@@H](CCC(=O)N[C@@H](CS)C(=O)NCC(=O)O)C(=O)O`, the Activity [1] was “is not a substrate [-]”.

With `COc1cc([C@@H]2c3cc4c(cc3[C@@H](O[C@@H]3O[C@@H]5CO[C@@H](C)O[C@H]5[C@H](O)[C@H]3O)[C@H]3COC(=O)[C@H]23)OCO4)cc(OC)c1O` the Activity [2] was “substrate [+]”.

With `O=C1C(CC[S+]([O-])c2ccccc2)C(=O)N(c2ccccc2)N1c1ccccc1` (stereo unspecified) the Activity [3] was “inhibitor [18 -> 83 % of control (clone#38), 30 -> 77 % of control (clone#77)]”.

For `COc1ccc2c(c1)c(CC(=O)O)c(C)n2C(=O)c1ccc(Cl)cc1`, the Activity [4] was “inhibitor [[…] -> […] % of control (clone#38), 30 -> […] % of control (clone#77)]”.

B1: Multidrug resistance associated protein (Homo sapiens), Q96QA9 (protein)
chain: MDALCGSGELGSKFWDSNLSVHTENPDLTPCFQNSLLAWVPCIYLWVALPCYLLYLRHHCRGYIILSHLSKLKMVLGVLLWCVSWADLFYSFHGLVHGRAPAPVFFVTPLVVGVTMLLATLLIQYERLQGVQSSGVLIIFWFLCVVCAIVPFRSKILLAKAEGEISDPFRFTTFYIHFALVLSALILACFREKPPFFSAKNVDPNPYPETSAGFLSRLFFWWFTKMAIYGYRHPLEEKDLWSLKEEDRSQMVVQQLLEAWRKQEKQTARHKASAAPGKNASGEDEVLLGARPRPRKPSFLKALLATFGSSFLISACFKLIQDLLSFINPQLLSILIRFISNPMAPSWWGFLVAGLMFLCSMMQSLILQHYYHYIFVTGVKFRTGIMGVIYRKALVITNSVKRASTVGEIVNLMSVDAQRFMDLAPFLNLLWSAPLQIILAIYFLWQNLGPSVLAGVAFMVLLIPLNGAVAVKMRAFQVKQMKLKDSRIKLMSEILNGIKVLKLYAWEPSFLKQVEGIRQGELQLLRTAAYLHTTTTFTWMCSPFLVTLITLWVYVYVDPNNVLDAEKAFVSVSLFNILRLPLNMLPQLISNLTQASVSLKRIQQFLSQEELDPQSVERKTISPGYAITIHSGTFTWAQDLPPTLHSLDIQVPKGALVAVVGPVGCGKSSLVSALLGEMEKLEGKVHMKGSVAYVPQQAWIQNCTLQENVLFGKALNPKRYQQTLEACALLADLEMLPGGDQTEIGEKGINLSGGQRQRVSLARAVYSDADIFLLDDPLSAVDSHVAKHIFDHVIGPEGVLAGKTRVLVTHGISFLPQTDFIIVLADGQVSEMGPYPALLQRNGSFANFLCNYAPDEDQGHLEDSWTALEGAEDKEALLIEDTLSNHTDLTDNDPVTYVVQKQFMRQLSALSSDGEGQGRPVPRRHLGPSEKVQVTEAKADGALTQEEKAAIGTVELSVFWDYAKAVGLCTTLAICLLYVGQSAAAIGANVWLSAWTNDAMADSRQNNTSLRLGVYAALGILQGFLVMLAAMAMAAGGIQAARVLHQALLHNKIRSPQSFFDTTPSGRILNCFSKDIYVVDEVLAPVILMLLNSFFNAISTLVVIMASTPLFTVVILPLAVLYTLVQRFYAATSRQLKRLESVSRSPIYSHFSETVTGASVIRAYNRSRDFEIISDTKVDANQRSCYPYIISNRWLSIGVEFVGNCVVLFAALFAVIGRSSLNPGLVGLSVSYSLQVTFALNWMIRMMSDLESNIVAVERVKEYSKTETEAPWVVEGSRPPEGWPPRGEVEFRNYSVRYRPGLDLVLRDLSLHVHGGEKVGIVGRTGAGKSSMTLCLFRILEAAKGEIRIDGLNVADIGDPILFSGTLRMNLDPFGSYSEEDIWWALELSHLHTFVSSQPAGLDFQCSEGGENLSVGQRQLVCLARALLRKSRILVLDEATAAIDLETDNLIQATIRTQFDTCTVLTIAHRLNTIMDYTRVLVLDKGVVAEFDSPANLIAARGIFYGMARDAGLA
For B1, the Km [5] was 17.7 µM and the Km [6] was 11.4 µM.
